Each structure is given as a SMILES string.

The assay concerns the target T1, CCR2 (Homo sapiens, UniProt P41597).
T1 construct: Membranes were prepared from THP-1 cells; endogenous in cells; host or cells: THP-1 (human acute monocytic leukaemia cells), membrane preparation
T1 sequence (P41597 1-360 isoform P41597-2): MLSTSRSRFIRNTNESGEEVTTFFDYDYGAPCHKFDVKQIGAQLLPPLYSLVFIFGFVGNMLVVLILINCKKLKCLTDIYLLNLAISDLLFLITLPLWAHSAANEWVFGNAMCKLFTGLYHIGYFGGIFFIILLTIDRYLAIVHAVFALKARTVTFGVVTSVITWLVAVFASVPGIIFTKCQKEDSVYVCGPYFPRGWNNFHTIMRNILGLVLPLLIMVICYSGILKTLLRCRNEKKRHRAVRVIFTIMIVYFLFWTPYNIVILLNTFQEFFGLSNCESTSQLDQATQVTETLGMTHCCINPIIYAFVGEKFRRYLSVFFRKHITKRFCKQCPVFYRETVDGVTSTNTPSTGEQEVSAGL
As to the kind of experiment: CCR2 receptor membrane binding assay ([125I]MCP-1, THP-1 membranes, SPA beads). Conditions: dissociation constant hKi; THP-1 cell membranes, [125I]MCP-1, bound radioactivity after 8 h. On the procedure: The above exemplary substances have been tested for binding to CCR2 using a binding assay as outlined herein below:
THP-1 cells (human acute monocytic leukaemia cells) were cultured under standardized conditions at 37° C. and 5% CO2 in a humidified incubator. THP-1 cells were cultivated in RPMI 1640 medium (Gibco 21875) containing 1% MEM-NEAA (Gibso 11140) 2 mM L-glutamine, 1.5 g/L sodium bicarbonate, 4.5 g/L glucose, 10 mM HEPES and 1.0 mM sodium pyruvate, 90%; 10% fetal calf serum (FCS Gibco 10500-064).
Membranes were prepared from THP-1 cells. THP-1 cells were centrifuged at 300×g at 4° C. for 10 min. The cell pellet was resuspendet in Phosphate Buffer Saline (PBS, including 10 μM Pefabloc and a protease inhibitor mix ‘complete’, Boehringer Mannheim (1 tablet/50 ml)), to a concentration of […]. The membrane preparation was performed by disrupting the cells by nitrogen […] (at 50 bar, for 1 h) in a “Nitrogen Bombe” (Parr Instrument). Cell debris was removed by centrifugation (800×g at 4° C., 1 min). The supernatant was centrifuged at 80000×g, 4° C. for 30 min to sediment the cell membranes. Usually 50 mg of protein (Bradford assay) were yielded from 1×10E9 cells. The membranes were resuspendet in 25 mM HEPES, 25 mM MgCl2, 1 mM CaCl2, 10% Glycerine for storage in aliquots at −80° C. in 25 mM HEPES, 25 mM MgCl2, 1 mM CaCl2, 10% Glycerine and stored at −80° C.
Receptor Membrane Binding Assay:
Perkin Elmer NEX 332 Jod 125 MCP-1, Stock: 2200 Ci/mmol solved in 2000 μl assay buffer, stored at −20° C. THP-1 membrane were adjusted with 25 mM HEPES, pH 7.2; 5 mM MgCl2; 0.5 mM CaCl2; 0.2% BSA assay buffer to a concentration of 2.5 μg/15 μl. Amersham Biosciences PVT-WGA Beads (RPNQ0001) were adjusted with assay buffer to a concentration of 0.24 mg/30 μl. For preparation of the membrane-bead-suspension membranes and beads were incubated for 30 min at RT under rotation (60 rpm) with a ratio of 1:2. Test compounds dissolved in 100% DMSO to a concentration of 10 mM and are further diluted with 100% DMSO to 1 mM. All additional compound dilutions were obtained with assay buffer, final 1% DMSO. Compounds, membrane-bead-suspension and [125I]MCP-1 (ca. 25000 cpm/10 μl) were incubated. Bound radioactivity was determined by scintillation counter after 8 h. Determination of affinity of test compounds (dissociation constant hKi) is calculated by iterative fitting of experimental data using the “easy sys” program, which is based on law of mass action (Schittkowski K. (1994), Numerische Mathematik, Vol. 68, 129-142).
For the compound `Cc1c(NC[C@@H]2CCC[C@H](c3ccc(Cl)cc3)O2)ncnc1C(=O)N1CCC(N2CCC(N(C)S(C)(=O)=O)CC2)CC1` [Example 6], the Ki turned out to be 190 nM.

Take `CO[C@H]1COCC[C@H]1NC1CCN(C(=O)c2nc(C)nc(NC[C@H]3CCC[C@@H](c4cccc(C)c4)O3)c2C)CC1` [Example 50]: the Ki was determined as 9 nM. For `CO[C@@H]1COCC[C@@H]1NC1CCN(C(=O)c2ncnc(NC[C@H]3CCC[C@@H](c4ccc(SC(F)(F)F)cc4)O3)c2C)CC1` [Example 53am], the Ki is 0.3 nM. In the case of `Cc1ccc([C@@H]2CCC[C@H](CNc3ncnc(C(=O)N4CCC(N5CCC(N(C)S(C)(=O)=O)CC5)CC4)c3C)O2)cc1` [Example 1], the inhibition constant (Ki) was found to be 8 nM. For `COC1CCN(C2CCN(C(=O)c3ncnc(NC[C@@H]4CCC[C@H](c5cccc(C(F)(F)F)c5)O4)c3C)CC2)CC1` [Example 3], the inhibitory constant (Ki) is 203 nM. Consider `Cc1ccc([C@H]2CCC[C@@H](CNc3ncnc(C(=O)N4CCC(N5CCC(N(C)S(C)(=O)=O)CC5)CC4)c3C)O2)cc1` [Example 19], for which the inhibitory constant (Ki) amounted to 162 nM.

`COc1nc(NC[C@H]2CCC[C@@H](c3ccc(C(F)(F)F)cc3)O2)cc(C(=O)N2CCC(N[C@@H]3CCOC[C@@H]3OC)CC2)n1` [Example 53o]: the inhibition constant Ki worked out at 1 nM. On to `COc1nc(NC[C@H]2CCC[C@@H](c3ccc(C(F)(F)F)cc3)O2)c(C)c(C(=O)N2CCC(N[C@@H]3CCOC[C@@H]3OC)CC2)n1` [Example 53ab], for which the Ki turned out to be 1 nM. Turning to `Cc1c(NC[C@H]2CCC[C@@H](c3ccc(C(F)(F)F)cc3)O2)ncnc1C(=O)N1CCC(N2CCC3(CC2)Cc2ccccc2O3)CC1` [Example 53y], the inhibition constant (Ki) turned out to be 16 nM. With `Cc1ccc(C2CCC[C@H](CNc3ncnc(C(=O)N4CCC(N5CCC(c6cccc(C(=O)O)c6)CC5)CC4)c3C)O2)cc1` (some centres unmarked) [Example 56], the Ki was 802 nM. In the case of `CO[C@@H]1COCC[C@@H]1NC1CCN(C(=O)c2cc(NC[C@H]3CCC[C@@H](c4ccc(C)cc4)O3)ncn2)CC1` [Example 28i] it was 221 nM.

Consider `CO[C@H]1COCC[C@H]1NC1CCN(C(=O)c2ncnc(NC[C@H]3CCC[C@@H](c4ccc(SC(F)(F)F)cc4)O3)c2C)CC1` [Example 53al], for which the Ki turned out to be 0.4 nM. Take `CO[C@H]1COCC[C@H]1NC1CCN(C(=O)c2ncnc(NC[C@H]3CCC[C@@H](c4ccc(OC(F)(F)F)cc4)O3)c2C)CC1` [Example 53f]: the inhibition constant (Ki) amounted to 12 nM. In the case of `CO[C@@H]1COCC[C@@H]1NC1CCN(C(=O)c2ccnc(NC[C@H]3CCC[C@@H](c4ccccc4)O3)c2C)CC1` [Example 53g] it was 16 nM; in that of `CO[C@@H]1COCC[C@@H]1NC1CCN(C(=O)c2nccc(NC[C@H]3CCC[C@@H](c4ccc(C)cc4)O3)c2C)CC1` [Example 53k], 9 nM; in that of `Cc1ccc([C@@H]2CCC[C@H](CNc3nc(C)nc(C(=O)N4CCC(N5CCC(N(C)S(C)(=O)=O)CC5)CC4)c3C)O2)cc1` [Example 20], 11 nM. Regarding `CO[C@@H]1COCC[C@@H]1NC1CCN(C(=O)c2cc(NC[C@H]3CCC[C@@H](c4ccc(C(F)(F)F)cc4)O3)nc(C(F)(F)F)n2)CC1` [Example 53t], the Ki stood at 0.4 nM.

Take `Cc1ccc(C2CCC[C@H](CNc3ncnc(C(=O)N4CCC(N5CCC(c6ccccc6C(=O)O)C5)CC4)c3C)O2)cc1` (some centres unmarked) [Example 59]: the inhibitory constant (Ki) is 263 nM. In the case of `Cc1c(NC[C@@H]2CCC[C@H](c3cccc(C(F)(F)F)c3)O2)ncnc1C(=O)N1CCC(N2CCC(N(C)S(C)(=O)=O)CC2)CC1` [Example 7], the Ki was found to be 36 nM.

`Cc1c(NCC2CCCC(c3ccc(C(F)(F)F)o3)O2)ncnc1C(=O)N1CCC(N2CCC(N(C)S(C)(=O)=O)CC2)CC1` (centres unmarked) [Example 28b]: the Ki was found to be 0.5 nM.

For `CO[C@@H]1COCC[C@@H]1NC1CCN(C(=O)c2cc(NC[C@H]3CCC[C@@H](c4ccc(OC(F)(F)F)cc4)O3)ncn2)CC1` [Example 28m], the Ki stood at 1 nM. The result for `Cc1c(NC[C@H]2CCC[C@@H](c3ccc(C(F)(F)F)cc3)O2)ncnc1C(=O)N1CCC(NC2CCOCC2F)CC1` (some centres unmarked) [Example 53u] reads 3 nM; that for `Cc1cccc([C@H]2CCC[C@@H](CNc3nc(C)nc(C(=O)N4CCC(N5CCC(N(C)S(C)(=O)=O)CC5)CC4)c3C)O2)c1` [Example 28], 658 nM. In the case of `CO[C@@H]1COCC[C@@H]1NC1CCN(C(=O)c2ccnc(NC[C@H]3CCC[C@@H](c4ccc(C)cc4)O3)c2C)CC1` [Example 53a] it was 7 nM. Turning to `CO[C@@H]1COCC[C@@H]1NC1CCN(C(=O)c2ncnc(NC[C@@H]3CCC[C@H](c4ccc(Cl)cc4)O3)c2C)CC1` [Example 43], the inhibition constant Ki came to 39 nM. The result for `CO[C@H]1COCC[C@H]1NC1CCN(C(=O)c2cc(NC[C@H]3CCC[C@@H](c4ccc(OC(F)(F)F)cc4)O3)nc(C(F)(F)F)n2)CC1` [Example 53m] reads 0.3 nM; that for `CO[C@@H]1COCC[C@@H]1NC1CCN(C(=O)c2ncnc(NC[C@H]3CCC[C@@H](c4ccc(Cl)cc4)O3)c2C)CC1` [Example 41], 3 nM; that for `CO[C@@H]1COCC[C@@H]1NC1CCN(C(=O)c2ncnc(NC[C@@H]3CCC[C@H](c4cccc(C(F)(F)F)c4)O3)c2C)CC1` [Example 45], 6 nM.

Consider `CCS(=O)(=O)N(C)C1CCN(C2CCN(C(=O)c3ncnc(NC[C@H]4CCC[C@@H](c5ccc(Cl)cc5)O4)c3C)CC2)CC1` [Example 27], for which the Ki came to 12 nM.

For orientation: Ki means a measure of affinity in units of concentration, obtained from inhibition or displacement.

Values taken from US8765949B2, “CCR2 receptor antagonists and uses thereof” (Boehringer Ingelheim International GmbH, priority 2009, dated 2014).
